Results from PubChem BioAssay (NCI).
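Compound exposure: 48 hours, 5 concentrations, 96-well plates. GI50 is the concentration that inhibits growth by half. TGI denotes the concentration required for complete inhibition of growth.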

Tests used:
Assay in all cases: inhibition of tumour cell growth, NCI panel, 48 h; in the data active = GI50 below about 0.43 µM; inactive = the rest
[1] = test system: HCT-116 colon
[2] = test system: RPMI-8226 leukemia
[3] = test system: ACHN renal
[4] = test system: SF-539 CNS
[5] = test system: MDA-MB-435
[6] = test system: OVCAR-4 ovarian
[7] = test system: SF-295 CNS
[8] = test system: IGROV1 ovarian
[9] = test system: SK-MEL-5 melanoma
[10] = test system: UO-31 renal
[11] = test system: UACC-257 melanoma
[12] = test system: NCI/ADR-RES ovarian
[13] = test system: HS 578T breast
[14] = test system: SR leukemia
[15] = test system: SN12C renal
[16] = test system: HOP-62 NSCLC
[17] = test system: OVCAR-5 ovarian
[18] = test system: 786-0 renal
[19] = test system: SW-620 colon
[20] = test system: HCC-2998 colon
[21] = test system: SK-MEL-28 melanoma
[22] = test system: MDA-MB-231 breast
[23] = test system: CCRF-CEM leukemia
[24] = test system: SNB-19 CNS
[25] = test system: HT29 colon
[26] = test system: MOLT-4 leukemia
[27] = test system: HCT-15 colon
[28] = test system: SK-MEL-2 melanoma
[29] = test system: MALME-3M melanoma
[30] = test system: NCI-H226 lung
[31] = test system: M14 melanoma
[32] = test system: A549 NSCLC
[33] = test system: U251 CNS
[34] = test system: SK-OV-3 ovarian
[35] = test system: T-47D breast
[36] = test system: HOP-92 NSCLC
[37] = test system: HL-60(TB) leukemia
[38] = test system: SF-268 CNS
[39] = test system: NCI-H23 lung
[40] = test system: KM12 colon
[41] = test system: RXF 393 renal
[42] = test system: PC-3 prostate
[43] = test system: BT-549 breast
[44] = test system: A498 renal
[45] = test system: UACC-62 melanoma
[46] = test system: OVCAR-8 ovarian
[47] = test system: CAKI-1 renal
[48] = test system: LOX IMVI melanoma
[49] = test system: SNB-75 CNS
[50] = test system: COLO 205 colon
[51] = test system: NCI-H522 lung
[52] = test system: NCI-H460 lung
[53] = test system: MCF7 breast
[54] = test system: DU-145 prostate
[55] = test system: TK-10 renal
[56] = test system: K-562 leukemia
[57] = test system: OVCAR-3 ovarian

COc1cc(-c2nn(-c3cccc(NC(=O)c4ccc(Cl)c(C(F)(F)F)c4)c3)cc2-c2ccncc2)ccc1Cl
15 µM: TGI [4] | TGI [12]
8.19 µM: TGI [7]
15.2 µM: TGI [57]
> 29.5 µM: TGI [13]
10.1 µM: TGI [28]
1.79 µM: TGI [5]
> 26.1 µM: TGI [25]
8.69 µM: TGI [9]
> 32.5 µM: TGI [1] | TGI [3] | TGI [6] | TGI [8] | TGI [10] | TGI [11] | TGI [15] | TGI [16] | TGI [17] | TGI [18] | TGI [19] | TGI [20] | TGI [21] | TGI [22] | TGI [23] | TGI [24] | TGI [26] | TGI [27] | TGI [30] | TGI [31] | TGI [32] | TGI [33] | TGI [34] | TGI [35] | TGI [37] | TGI [38] | TGI [39] | TGI [40] | TGI [43] | TGI [45] | TGI [46] | TGI [47] | TGI [48] | TGI [52] | TGI [53] | TGI [54] | TGI [55] | TGI [56]
> 16.3 µM: TGI [42]
> 24.6 µM: TGI [41]
7.01 µM: TGI [44]
> 10.2 µM: TGI [14]
13.2 µM: TGI [49]
inactive: GI50 [1] 2.04 µM | GI50 [2] 1.08 µM | GI50 [3] 1.91 µM | GI50 [4] 2.63 µM | GI50 [5] 0.658 µM | GI50 [6] 6.26 µM | GI50 [7] 1.08 µM | GI50 [8] 1.78 µM | GI50 [9] 1.13 µM | GI50 [10] 0.551 µM | GI50 [11] 3.6 µM | GI50 [12] 1.18 µM | GI50 [13] 1.78 µM | GI50 [14] 0.809 µM | GI50 [15] 7.15 µM | GI50 [16] 6.5 µM | GI50 [17] > 28.4 µM | GI50 [18] 8.2 µM | GI50 [19] 2.87 µM | GI50 [20] 9.89 µM | GI50 [21] 3.09 µM | GI50 [22] 1.44 µM | GI50 [23] 1.77 µM | GI50 [24] 7.64 µM | GI50 [25] 3.33 µM | GI50 [26] 5.24 µM | GI50 [27] 3.15 µM | GI50 [28] 1.42 µM | GI50 [29] 0.922 µM | GI50 [30] 7.83 µM | GI50 [31] 2.31 µM | GI50 [32] 2.41 µM | GI50 [33] 2.39 µM | GI50 [34] 7.53 µM | GI50 [35] 1.3 µM | GI50 [37] 2.56 µM | GI50 [38] 3.24 µM | GI50 [39] 3.14 µM | GI50 [40] 1.6 µM | GI50 [41] 2.01 µM | GI50 [42] 0.798 µM | GI50 [43] 4.35 µM | GI50 [44] 1.02 µM | GI50 [45] 1.6 µM | GI50 [46] 3.35 µM | GI50 [47] 2.34 µM | GI50 [48] 1.92 µM | GI50 [49] 1.07 µM | GI50 [50] 3.5 µM | GI50 [51] 0.794 µM | GI50 [52] 2.21 µM | GI50 [53] 1.82 µM | GI50 [54] 5.46 µM | GI50 [55] 12.9 µM | GI50 [56] 1.21 µM | GI50 [57] 1.43 µM
5.52 µM: TGI [51]
2.5 µM: TGI [36]
> 21.8 µM: TGI [2]
6.68 µM: TGI [29]
active: GI50 [36] 0.425 µM
17.6 µM: TGI [50]
